Entries after “also recorded” stand apart in the source; their conditions may differ.
Assays:
Format in all cases: in vivo, rat
[1] = tested on: Male Lewis rats (CIA model, heterotopic bone formation); experiment: Collagen Induce Arthritis (CIA) in rats, histological scores
Source text: Collagen Induce Arthritis (CIA) in rats is among the most common models used to mimic human arthritis and especially Rheumatoid Arthritis (RA). In general the joint response seen in this model is quite similar to that observed in human pathology, in terms of inflammation, bone erosion and cartilage damage. Nevertheless, this model differs from Rheumatoid Arthritis, since it is endowed with a consistent periosteal woven bone formation (immature bone) that is not a usual feature of human RA (maybe, less than 10% of patients have this type of bone reaction). On the contrary, this disordered apposition of new bone is the distinctive feature of heterotopic ossification. Therefore, this model was used to study the effect of the compound of the invention in Pathological heretopic osteogenesis.
Male Lewis rats were immunized by intradermal injection at the base of the tail with an emulsion containing 150 μg of bovine collagen type II (bCII) in complete Freund's adjuvant (CFA) or received an injection with incomplete Freund's adjuvant (sham group). Three weeks after the first immunisation, animals were boosted with the same procedure. Three days after booster injection, arthritis had developed in all animals but the sham group. The administration of the compound (1) Form A started at this time point and lasted for 14 days (once a day, unless otherwise indicated).
The paws were fixed in 10% neutral buffered formalin (Bio-Optica, Milan, Italy) and subsequently decalcified in EDTA for 4 weeks. Samples were dehydrated in an ethanol series and embedded in paraffin. At least three non-consecutive sections for each paw were blindly scored at the level of the tarsus, metatarsus and calcaneus for the following histological features of woven bone. Two independent pathologists performed histopathology on blinded slides. The data of right and left hind limbs were summed for each rat.
In FIG. 3 the dose-response curve for the compound of the invention is reported. the compound was administered once a day for 14 days on the site where the pathological bone formation was expected as induced in the CIA model in rats. The dose were 1 mg/Kg, 3 mg/kg and 10 mg/kg. The data were expressed as the median (boxed area), 95% interquartile range (whiskers), and individual data (symbols) of the histological scores for heterotopic bone formation (osteogenesis) given by two pathologists unaware of the treatment groups on a following scale: 0=absent; 1=mild/focal; 2=moderate/multifocal; 3=severe/multifocal to diffuse. Since arthritis was bilateral, the scores for each rat was the sum of the two leg scores. […] The compound reached the maximal activity at 10 mg/kg.
The data were expressed as the median histological scores for heterotopic bone formation (osteogenesis) as described for FIG. 3. […] As for osteogenesis, the data reported in this graph were the median (boxed area), 95% interquartile range (whiskers), and individual data (symbols) of the histological scores for synovial hyperplasia (oedema) given by two pathologists unaware of the treatment groups on a following scale: 0=normal: 1-2 layers of synovial lining cells, 1=mild: focal to multifocal 3-4 layers of synovial lining cells and/or mild proliferation of subsynovial tissue, 2=moderate: focal to mutlitfocal >4-6 layers of synovial lining cells and/or moderate proliferation of subsynovial tissue, 3=severe: multifocal to diffuse >6-8 layers of synovial lining cells and/or severe proliferation of subsynovial tissue. Since arthritis was bilateral, the scores for each rat is the sum of the two leg scores. This underline a preferential and surprising effect of (R)-4-(1-(6-(4-(trifluoromethyl)benzyl)-6-azaspiro[2.5]octane-5-carboxamido)cyclopropyl)benzoic acid on the heterotopic bone formation, […].
The free acid form has been assayed in the rat CIA model as already described for its sodium salt (Form A). […]

[2] = tested on: Male Lewis rats (CIA model, osteophyte formation); experiment: CIA model in rats, micro-CT study of bone structure
Experimental: Male Lewis rats were immunized and treated exactly as described in example 2.
Specifically, the animals were divided in four groups: controls, vehicle treated CIA rat, and two groups administered with a dose of 10 mg/kg and 30 mg/kg, respectively, of the compound of the invention.
After 14 days of treatment, bone samples corresponding to hind limbs (left and right) of arthritic rats or sham ones were sent for micro-CT analysis to Atlantic Bone Screen (ABS, 3 rue Aronnax, 44800 SAINT-HERBLAIN France). Bone samples were sent to ABS facilities after they have been removed from soft tissue and fixed in formalin solution within a maximum of 1 week.
40 samples were analyses blindly. Then, the unmask data were analyzed to compare the different groups:
Analyses of calcaneus and knee density and microarchitectural characteristics were performed using the high-resolution X-ray micro-CT. […] To quantitatively compare the four groups, the hind paw calcaneus, knee (proximal tibial and distal femoral epiphysis) and proximal tibial metaphysis were identified as the anatomical sites for micro-CT analysis. The bone mineral density (BMD), bone volume ratio (BV/TV), bone surface (BS) and bone surface-volume ratio (BS/BV) was calculated while including calcaneus, proximal tibial and distal femoral epiphysis (cortical bone, cancellous bone and potential osteophytes).

[3] = tested on: Sprague Dawley male rats (AIA model); experiment: Adjuvant Induced Arthritis (AIA) in rats, histology of pathological bone apposition; conditions: 10 mg/kg orally once a day for 15 days, FIG. 10
Source text: Adjuvant Induced Arthritis (AIA) in rats is a widely studied and accepted animal model of inflammatory arthritis driven by Tcells. In experimental autoimmune diseases, CFA mediated activation of the innate immune compartment is important not only by regulating the early induction phase, but also by providing a surplus of effector and regulator cells in the late phase. Also in this model it was possible to appreciate a relevant pathological apposition of new bone. This paradigm was used as a third model to further confirm the effect of the compound of the invention as an effective inhibitor of pathological heterotopic ossification.
Sprague Dawley male rats (Charles River) were immunized by intradermal injection at the base of the tail with 150 μl of complete Freund's adjuvant (CFA) containing 10 mg/ml of heat killed Mycobacterium tuberculosis (Chondrex code 7027) or with incomplete Freund's adjuvant (IFA) (sham n=10). Ten days after immunization arthritis developed in all animals, but not in the sham-group; edema and clinical scores were assessed and the animals were then randomized and assigned to treatment groups (n=9-12) as follows: vehicle, the compound of the invention 10 mg/kg or 30 mg/kg. The compound of the invention was administered orally once a day for 15 days. […]

**Q.** Which “activity against heterotopic ossification in combination with methotrexate” value ([1]; 1 mg/kg combined with methotrexate 0.5 mg/kg every other day, FIG. 5) does the source give for `O=C([O-])c1ccc(C2(NC(=O)[C@H]3CC4(CCN3Cc3ccc(C(F)(F)F)cc3)CC4)CC2)cc1.[Na+]` [Form A, sodium (R)-4-(1-(6-(4-(trifluoromethyl)benzyl)-6-azaspiro[2.5]octane-5-carboxamido)cyclopropyl)benzoate] here?
**A.** The value was “not hindered by the combination with this drug”.

**Q.** What about the “activity against heterotopic ossification compared with methotrexate” value ([1]; 1 mg/kg vs methotrexate 0.5 mg/kg every other day, FIG. 5) of the same molecule?
**A.** Its value is “higher than the comparative compound”.

**Q.** What about the “activity on heterotopic bone formation (osteogenesis) compared with Methylsulfonylmethane (MSM)” value ([1]; 10 mg/kg once a day vs MSM 600 mg/kg, FIG. 4) of the same molecule?
**A.** Its value is “greatly superior”.

**Q.** What about the “control of the inflammatory response (edema; histological scores for synovial hyperplasia)” value ([1]; 15 mg/kg each, FIG. 6b) of the same molecule?
**A.** Its value is “equally effective”.

**Q.** And the “activity in preventing pathological heterotopic ossification compared with rofecoxib” value ([1]; 15 mg/kg, identical dose of rofecoxib, FIG. 6a)?
**A.** The value was “surprisingly superior”.

**Q.** What about the “histological scores for heterotopic bone formation (osteogenesis)” value ([1]; 1, 3 and 10 mg/kg once a day for 14 days, FIG. 3) of the same molecule?
**A.** Its value is “capable to counteract the heterotopic bone formation; also recorded: able to counteract bony spur formation in a dose-dependent fashion”.

**Q.** What about the “lowest effective dose against heterotopic ossification” value ([1]; FIG. 5) of the same molecule?
**A.** Its value is 1 mg/kg.

**Q.** What about the “dose of maximal activity against heterotopic bone formation” value ([1]; once a day for 14 days, FIG. 3) of the same molecule?
**A.** The value was 10 mg/kg.

**Q.** And the “osteophytes at calcaneus and knee (micro-CT)” value ([2]; 10 and 30 mg/kg, 14 days of treatment, FIG. 8)?
**A.** Its value is “the osteophytes disappeared at both site”.

**Q.** What about the “optimal dose (maximal activity) against osteophyte formation” value ([2]; micro-CT, maintained at 30 mg/kg) of the same molecule?
**A.** The value was 10 mg/kg.

**Q.** And the “pathological bone apposition (histology)” value [3]?
**A.** Its value is “completely abrogated the pathological bone apposition in almost all animals”.
